The experiment concerns the target T1, skeletal myofibrils (Rabbit Psoas), myosin ATPase activity.
T1 construct: Rabbit Psoas Prep 11 (0.25 mg/mL)
Kind of experiment: Skeletal Myofibril ATPase Assay. As to conditions: skeletal myofibrils (Rabbit Psoas 0.25 mg/mL), PK/LDH-coupled NADH absorbance at 340 nm. It counts as biochemical. How it is done: Overview: Myosin ATPase activity is assessed by using a coupled reaction system, in which ADP generated by the myosin ATPase function is coupled to the disappearance of NADH through the pyruvate kinase/lactate dehydrogenase (PK-LDH) system. Myosin ATPase activity produces ADP, which is used as a substrate for PK to produce pyruvate and regenerate ATP. The pyruvate is then used as a substrate by LDH to oxidize NADH to NAD+. The rate of the reaction is monitored through the time-dependent disappearance of NADH using absorbance at 340 nm. Inhibition of ATPase activity by the assayed compounds is indicated by a reduced rate of NADH loss, relative to vehicle-treated controls, over the experimental time window. To assess the selectivity of the assayed compounds for skeletal myofibrils, the compounds are counter-screened in cardiac myofibrils.
Materials: The following stock solutions and reagents were used in the Skeletal Myofibril ATPase Assay:
Stock Solutions of pCa buffer. Combine PIPES, CaCl2, and EGTA solutions with 70 mL of water. Adjust pH to 7.0 and bring final volume to 100 mL.
Buffer A & Buffer B. Buffers were stored on ice until use.
Skeletal Myofibril ATPase Assay Procedure: BSA, ATP, NADH, PEP, and DTT solutions were thawed at room temperature, then transferred to ice. Pellet-frozen myofibrils were transferred with approximately twice the required volume into a sufficiently large tube and capped. Myofibrils were thawed by rolling in a water bath for approximately 15 min at room temperature and cooled on ice. Buffers A and B were prepared by adjusting volumes as necessary for required number of wells and stored on ice. 0.5 μL of the compounds to be assayed were added into wells. 25 μL of Buffer A was dispensed into the wells, followed by 25 μL of Buffer B. The wells were measured for absorbance at 340 nm, using a kinetic protocol in which the wells are read every 1.5-2 min for 45 min. The slope of the data was approximated by subtracting the minimum absorbance value from the maximum value for each well. This was accomplished either in the SoftMax Pro software or in a spreadsheet program such as Excel. Using GraphPad Prism 8.0, the data was normalized by assigning a value of 100% to the 1% DMSO vehicle wells. Typically, a normalized 0% value was simply assigned to a (Max−Min) value of 0. The normalized data was fit to a Four Parameter Logistic sigmoidal equation, constraining the bottom to be 0 or greater. Compounds of Table 1 to 4 were tested and results of the assay appear in Table 5 herein. A=IC50 is less than or equal to 10 μM; B=IC50 is greater than 10 μM and less than 100 μM; C=IC50 is greater than 100 μM.

Consider `C=Cc1ccc(Cn2nc(-c3ccc(OC)cc3F)ccc2=O)cc1` [Compound 202, 6-(2-fluoro-4-methoxyphenyl)-2-(4-vinylbenzyl)pyridazin-3(2H)-one], for which the half-maximal inhibitory concentration (IC50) (usually the concentration that gives 50% inhibition) is greater than 100 µM.

For the molecule `O=c1ccc(-c2ccc(F)cc2)nn1Cc1cccc(C(F)(F)F)c1` [Compound 241, 6-(4-fluorophenyl)-2-(3-(trifluoromethyl)benzyl)pyridazin-3(2H)-one], the half-maximal inhibitory concentration (IC50) is greater than 100 µM.

Take `CC1(C)Cc2cc(-c3ccc(=O)n(Cc4ccc(Cl)cc4)n3)ccc2O1` [Compound 115, 2-(4-chlorobenzyl)-6-(2,2-dimethyl-2,3-dihydrobenzofuran-5-yl)pyridazin-3(2H)-one]: the IC50 is greater than 100 µM.

As to `O=c1ccc(-c2ccc(OC(F)(F)F)nc2)nn1Cc1ccc(Cl)cc1` [Compound 13, 2-(4-chlorobenzyl)-6-(6-(trifluoromethoxy)pyridin-3-yl)pyridazin-3(2H)-one], the IC50 was less than 10 µM.

Molecule `O=c1ccc(-c2ccc(F)cc2)nn1Cc1ccc(Cl)cc1` [Compound 300, 2-(4-chlorobenzyl)-6-(4-fluorophenyl)pyridazin-3(2H)-one] returned an IC50 of less than 10 µM.

On to `CCc1ccc(-c2ccc(=O)n(Cc3ccc(Cl)cc3)n2)cc1` [Compound 313, 2-(4-chlorobenzyl)-6-(4-ethylphenyl)pyridazin-3(2H)-one], for which the IC50 was less than 10 µM.

`O=c1ccc(-c2ccc(OC(F)(F)F)cc2)nn1Cc1ccc(Cl)cc1` [Compound 105, 2-(4-chlorobenzyl)-6-(4-(trifluoromethoxy)phenyl)pyridazin-3(2H)-one] showed a half-maximal inhibitory concentration (IC50) of less than 10 µM.

In turn, `O=c1ccc(-c2cnc(OCC(F)(F)F)nc2)nn1Cc1ccccc1O` [Compound 49, 2-(2-hydroxybenzyl)-6-(2-(2,2,2-trifluoroethoxy)pyrimidin-5-yl)pyridazin-3(2H)-one] gave a half-maximal inhibitory concentration (IC50) of less than 10 µM.

Turning to `O=c1ccc(-c2cnc(NCC(F)F)nc2)nn1Cc1ccc(Cl)cc1` [Compound 32, 2-(4-chlorobenzyl)-6-(2-((2,2-difluoroethyl)amino)pyrimidin-5-yl)pyridazin-3(2H)-one], the half-maximal inhibitory concentration (IC50) was less than 10 µM.

`Cc1ccc(Cn2nc(-c3ccc(Cl)cc3)ccc2=O)cc1` [Compound 311, 6-(4-chlorophenyl)-2-(4-methylbenzyl)pyridazin-3(2H)-one] registered an IC50 of less than 10 µM.

Molecule `O=c1ccc(-c2ccc(F)cc2)nn1Cc1ccc(F)cc1` [Compound 244, 2-(4-fluorobenzyl)-6-(4-fluorophenyl)pyridazin-3(2H)-one] displayed an IC50 of 10 to 100 µM.

The molecule `O=c1ccc(-c2cnc(OCC(F)(F)F)nc2)nn1Cc1ccc(F)cc1` [Compound 37, 2-(4-fluorobenzyl)-6-(2-(2,2,2-trifluoroethoxy)pyrimidin-5-yl)pyridazin-3(2H)-one] yielded a 50% inhibitory concentration (IC50) of less than 10 µM.

For the molecule `O=c1ccc(-c2ccc(F)cc2)nn1Cc1ccccc1F` [Compound 243, 2-(2-fluorobenzyl)-6-(4-fluorophenyl)pyridazin-3(2H)-one], the half-maximal inhibitory concentration (IC50) was 10 to 100 µM.

Turning to `CC1Cc2cc(-c3ccc(=O)n(Cc4ccc(Cl)cc4)n3)ccc2O1` (centres unmarked) [Compound 109, 2-(4-chlorobenzyl)-6-(2-methyl-2,3-dihydrobenzofuran-5-yl)pyridazin-3(2H)-one], the IC50 was less than 10 µM.

Molecule `O=c1ccc(-c2cnc(OCC(F)(F)F)nc2)nn1Cc1cc(F)cc(F)c1` [Compound 43, 2-(3,5-difluorobenzyl)-6-(2-(2,2,2-trifluoroethoxy)pyrimidin-5-yl)pyridazin-3(2H)-one] gave an IC50 of less than 10 µM.

Consider `C[C@@H](c1ccccc1)n1nc(-c2ccc(Cl)cc2)ccc1=O` [Compound 315, (S)-6-(4-chlorophenyl)-2-(1-phenylethyl)pyridazin-3(2H)-one], for which the IC50 was greater than 100 µM.

As to `O=c1ccc(-c2ccc(Cl)cc2)nn1Cc1cccc(F)c1` [Compound 317, 6-(4-chlorophenyl)-2-(3-fluorobenzyl)pyridazin-3(2H)-one], the half-inhibitory concentration (IC50) is less than 10 µM.

In turn, `CCCc1ccc(-c2ccc(=O)n(Cc3ccc(Cl)cc3)n2)cc1` [Compound 312, 2-(4-chlorobenzyl)-6-(4-propylphenyl)pyridazin-3(2H)-one] registered a half-maximal inhibitory concentration (IC50) of less than 10 µM.

For the molecule `[2H]C([2H])(c1ccccc1)n1nc(-c2cnc(OCC(F)(F)F)nc2)ccc1=O` [Compound 52, 2-(phenylmethyl-d2)-6-(2-(2,2,2-trifluoroethoxy)pyrimidin-5-yl)pyridazin-3(2H)-one], the IC50 is less than 10 µM.

Take `CNC(=O)c1ccc(-c2ccc(=O)n(Cc3ccc(Cl)cc3)n2)cc1` [Compound 113]: the 50% inhibitory concentration (IC50) was in the range of 10 to 100 µM.

The molecule `O=c1ccc(-c2cnc(OCCOC(F)(F)F)nc2)nn1Cc1ccc(Cl)cc1` [Compound 2, 2-(4-chlorobenzyl)-6-(2-(2-(trifluoromethoxy)ethoxy)pyrimidin-5-yl)pyridazin-3(2H)-one] had an IC50 of less than 10 µM.

Regarding `O=c1ccc(-c2ccc(Cl)nc2)nn1Cc1ccc(Cl)cc1` [Compound 304, 2-(4-chlorobenzyl)-6-(6-chloropyridin-3-yl)pyridazin-3(2H)-one], the IC50 is less than 10 µM.

On to `COc1ccc(Cn2nc(-c3ccc(Br)cc3)ccc2=O)cc1` [Compound 237, 6-(4-bromophenyl)-2-(4-methoxybenzyl)pyridazin-3(2H)-one], for which the IC50 was less than 10 µM.

`CC1CCCN1c1ncc(-c2ccc(=O)n(Cc3ccc(F)cc3F)n2)cn1` (centres unmarked) [Compound 16, 2-(2,4-difluorobenzyl)-6-(2-(2-methylpyrrolidin-1-yl)pyrimidin-5-yl)pyridazin-3(2H)-one] displayed an IC50 of less than 10 µM.

`C[C@@H]1Cc2cc(-c3ccc(=O)n(Cc4ccc(Cl)cc4)n3)ccc2O1` [Compound 111, (R)-2-(4-chlorobenzyl)-6-(2-methyl-2,3-dihydrobenzofuran-5-yl)pyridazin-3(2H)-one] registered an IC50 of less than 10 µM.

`Cn1ncc2cc(-c3ccc(=O)n(Cc4ccc(Cl)cc4)n3)ccc21` [Compound 119, 2-(4-chlorobenzyl)-6-(1-methyl-1H-indazol-5-yl)pyridazin-3(2H)-one] displayed an IC50 greater than 100 µM.

With `O=c1ccc(-c2cnc(OCC(F)(F)F)nc2)nn1C1(c2ccccc2)CC1` [Compound 54, 2-(1-phenylcyclopropyl)-6-(2-(2,2,2-trifluoroethoxy)pyrimidin-5-yl)pyridazin-3(2H)-one], the half-maximal inhibitory concentration (IC50) is less than 10 µM.

Consider `O=c1ccc(-c2cnc(N3CCCC3)nc2)nn1Cc1ccc(F)cc1F` [Compound 23, 2-(2,4-difluorobenzyl)-6-(2-(pyrrolidin-1-yl)pyrimidin-5-yl)pyridazin-3(2H)-one], for which the IC50 is less than 10 µM.

For `O=c1ccc(-c2ccc(OC(F)F)nc2)nn1[C@@H](CO)c1ccc(Cl)cc1` [Compound 53, (R)-2-(1-(4-chlorophenyl)-2-hydroxyethyl)-6-(6-(difluoromethoxy)pyridin-3-yl)pyridazin-3(2H)-one], the half-maximal inhibitory concentration (IC50) was greater than 100 µM.

As for `O=c1ccc(-c2cnc(N3CC4(C3)CC(F)(F)C4)nc2)nn1Cc1ccc(Cl)cc1` [Compound 14, 2-(4-chlorobenzyl)-6-(2-(6,6-difluoro-2-azaspiro[3.3]heptan-2-yl)pyrimidin-5-yl)pyridazin-3(2H)-one], the IC50 was less than 10 µM.

`O=c1ccc(-c2ccc3c(c2)CCO3)nn1Cc1ccc(Cl)cc1` [Compound 112, 2-(4-chlorobenzyl)-6-(2,3-dihydrobenzofuran-5-yl)pyridazin-3(2H)-one] registered an IC50 of less than 10 µM.

`CCOc1ccc(-c2ccc(=O)n(Cc3ccc(Cl)cc3)n2)cc1` [Compound 213, 2-(4-chlorobenzyl)-6-(4-ethoxyphenyl)pyridazin-3(2H)-one] had a half-inhibitory concentration (IC50) of less than 10 µM.

Values taken from patent publication US11390606B2, “Pyridazinone compounds and uses thereof” (Edgewise Therapeutics, Inc., priority 2018, dated 2022).
